Measurements taken from ChEMBL document CHEMBL1130956 (Bioorg Med Chem Lett, 1998).

Tests used:
Cavia porcellus [1] = assay: In vivo activity was determined after oral administration for 1 hr in a guinea pig efficacy model for allergic airway obstruction; assay type: functional
U-937 = assay: Ability to mobilize Ca+2 in LTD4 dependent Ca+2 mobilization assay in differentiated human monocytic U-937 cells; assay type: functional, cell-based
[2] = target: T1, Cysteinyl leukotriene receptor 1 (Cavia porcellus, UniProt Q2NNR5); assay: Binding affinity against leukotriene D4 receptor in [3H]LTD4 binding assay
T1 sequence (Q2NNR5 whole entry): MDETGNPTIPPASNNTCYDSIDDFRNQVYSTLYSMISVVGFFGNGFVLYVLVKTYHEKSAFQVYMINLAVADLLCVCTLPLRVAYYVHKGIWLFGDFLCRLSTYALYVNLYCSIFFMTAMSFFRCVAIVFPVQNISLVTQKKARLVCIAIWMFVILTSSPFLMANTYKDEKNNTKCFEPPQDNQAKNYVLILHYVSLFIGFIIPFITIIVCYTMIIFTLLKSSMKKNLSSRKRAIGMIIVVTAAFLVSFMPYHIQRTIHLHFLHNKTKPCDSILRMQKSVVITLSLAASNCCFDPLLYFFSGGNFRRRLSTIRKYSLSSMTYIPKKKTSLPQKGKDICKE

Cavia porcellus [3] = assay: In vivo activity was determined after oral administration for 2 hr in a guinea pig efficacy model for allergic airway obstruction; assay type: functional
Cavia porcellus [4] = assay: In vivo activity was determined after 1 mg/kg oral administration for 2 hrs in a guinea pig efficacy model for allergic airway obstruction; assay type: functional
Cavia porcellus [5] = assay: In vivo activity was determined after 1 mg/kg oral administration for 1 hr in a guinea pig efficacy model for allergic airway obstruction; assay type: functional
Cavia porcellus [6] = assay: In vivo activity was determined after oral administration for 2 hrs in a guinea pig efficacy model for allergic airway obstruction; assay type: functional

Row | SMILES | IC50 (U-937) [nM] | IC50 [2] [nM] | ED50 (Cavia porcellus [1]) [mg/kg] | ED50 (Cavia porcellus [3]) [mg/kg] | inhibition in vivo at 1 mg/kg (Cavia porcellus [4]) [%] | inhibition in vivo at 1 mg/kg (Cavia porcellus [5]) [%] | Inhibition (Cavia porcellus [1]) [%] | ED50 (Cavia porcellus [6]) [mg/kg]
1 | CCN(CC)C(=O)n1cc(Cc2ccc(C(=O)NS(=O)(=O)c3ccccc3C)cc2OC)c2cc(NC(=O)OC3CCCC3)ccc21 | 0.8 | 0.5 | 1.2 | – | – | – | – | –
2 | COc1cc(C(=O)NS(=O)(=O)c2ccccc2C)ccc1Cc1cn(C=O)c2ccc(NC(=O)OC3CCCC3)cc12 | 0.6 | 1 | 0.84 | – | – | – | – | –
3 | COc1cc(C(=O)NS(=O)(=O)c2ccccc2C)ccc1Cc1cn(C(=O)N(C)C)c2ccc(NC(=O)OC3CCCC3)cc12 | 1 | 0.4 | – | – | – | 39 | – | –
4 | COc1cc(C(=O)NS(=O)(=O)c2ccccc2C)ccc1Cc1cn(C(=O)N2CCOCC2)c2ccc(NC(=O)OC3CCCC3)cc12 | 2 | 0.4 | – | – | – | – | 8 | –
5 | COc1cc(C(=O)NS(=O)(=O)c2ccccc2C)ccc1Cc1c[nH]c2ccc(NC(=O)OC3CCCC3)cc12 [N-DEALKYLATED DERIVATIVE] | 2 | 1 | – | – | – | 40 | – | –
6 | COc1cc(C(=O)NS(=O)(=O)c2ccccc2C)ccc1Cc1cn(C)c2ccc(NC(=O)OC3CCCC3)cc12 [ZAFIRLUKAST] | 1 | – | – | – | – | – | – | 0.9

The next compounds have a lower IC50 (U-937) than those just listed; values first:

Row | IC50 (U-937) [nM] | IC50 [2] [nM] | SMILES | ED50 (Cavia porcellus [1]) [mg/kg] | ED50 (Cavia porcellus [3]) [mg/kg] | inhibition in vivo at 1 mg/kg (Cavia porcellus [4]) [%] | inhibition in vivo at 1 mg/kg (Cavia porcellus [5]) [%] | Inhibition (Cavia porcellus [1]) [%] | ED50 (Cavia porcellus [6]) [mg/kg]
7 | 0.3 | 0.5 | COc1cc(C(=O)NS(=O)(=O)c2ccccc2C)ccc1Cc1cn(C(N)=O)c2ccc(NC(=O)OC3CCCC3)cc12 | 1.6 | – | – | – | – | –
8 | 0.4 | 2 | COc1cc(C(=O)NS(=O)(=O)c2ccccc2C)ccc1Cc1cn(C(=O)N(c2ccccc2)c2ccccc2)c2ccc(NC(=O)OC3CCCC3)cc12 | – | 1.1 | – | – | – | –
9 | 0.4 | 1 | COc1cc(C(=O)NS(=O)(=O)c2ccccc2C)ccc1Cc1cn(C(F)F)c2ccc(NC(=O)OC3CCCC3)cc12 | – | – | 58 | – | – | –
10 | 0.1 | 0.5 | COc1cc(C(=O)NS(=O)(=O)c2ccccc2C)ccc1Cc1cn(C(=O)NCCN(C)C)c2ccc(NC(=O)OC3CCCC3)cc12 | – | – | – | – | 34 | –
11 | 0.1 | 0.5 | COc1cc(C(=O)NS(=O)(=O)c2ccccc2C)ccc1Cc1cn(C(=O)NCCCc2ccccc2)c2ccc(NC(=O)OC3CCCC3)cc12 | 1.6 | – | – | – | – | –
12 | 0.2 | 0.4 | COc1cc(C(=O)NS(=O)(=O)c2ccccc2C)ccc1Cc1cn(C(=O)N(C)c2ccccc2)c2ccc(NC(=O)OC3CCCC3)cc12 | – | 1.1 | – | – | – | –
